According to BindingDB's records for PubMed 1930610 (Eli Lilly, 1991):
Structures can show the parent of a compound that is named as a salt.

What was measured:
[1] = molecular target: 5-hydroxytryptamine receptor 2A (Rattus norvegicus, UniProt P14842)
[2] = molecular target: T1, 5-hydroxytryptamine receptor 1A (Rattus norvegicus, UniProt P19327)
T1 sequence (P19327 whole entry): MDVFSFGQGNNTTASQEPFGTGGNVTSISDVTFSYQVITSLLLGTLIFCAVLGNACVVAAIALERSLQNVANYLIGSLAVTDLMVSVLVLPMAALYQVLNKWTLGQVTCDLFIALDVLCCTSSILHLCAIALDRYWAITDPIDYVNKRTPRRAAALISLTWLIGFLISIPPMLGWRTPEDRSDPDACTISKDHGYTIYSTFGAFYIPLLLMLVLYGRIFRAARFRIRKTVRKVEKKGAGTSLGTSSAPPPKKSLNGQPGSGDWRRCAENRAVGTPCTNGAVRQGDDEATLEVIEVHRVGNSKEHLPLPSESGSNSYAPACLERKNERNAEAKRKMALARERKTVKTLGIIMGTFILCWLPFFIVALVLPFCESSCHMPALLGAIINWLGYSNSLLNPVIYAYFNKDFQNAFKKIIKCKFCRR

[3] = molecular target: 5-hydroxytryptamine 1D receptor (Bos taurus, UniProt Q8MI13)
[4] = molecular target: 5-hydroxytryptamine receptor 1B (Rattus norvegicus, UniProt P28564)
Beta-arrestin-2 = Beta-arrestin-2 (Bos taurus, UniProt P32120)
[5] = molecular target: T2, 5-hydroxytryptamine receptor 3A (Rattus norvegicus, UniProt P35563)
T2 sequence (P35563 whole entry): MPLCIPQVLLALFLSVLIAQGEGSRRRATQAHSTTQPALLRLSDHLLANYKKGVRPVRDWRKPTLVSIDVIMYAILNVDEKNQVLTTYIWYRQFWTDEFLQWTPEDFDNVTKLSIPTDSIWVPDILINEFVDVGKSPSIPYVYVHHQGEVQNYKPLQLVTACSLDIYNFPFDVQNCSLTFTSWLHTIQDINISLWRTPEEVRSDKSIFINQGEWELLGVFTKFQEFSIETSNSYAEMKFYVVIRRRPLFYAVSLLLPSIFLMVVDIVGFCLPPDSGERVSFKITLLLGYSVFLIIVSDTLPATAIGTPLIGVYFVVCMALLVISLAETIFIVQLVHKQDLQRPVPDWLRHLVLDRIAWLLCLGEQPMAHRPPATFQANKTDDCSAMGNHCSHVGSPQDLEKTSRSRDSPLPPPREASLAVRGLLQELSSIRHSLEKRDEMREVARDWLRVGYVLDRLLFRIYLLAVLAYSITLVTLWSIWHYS

5-hydroxytryptamine 1D receptor, sequence (Q8MI13 whole entry): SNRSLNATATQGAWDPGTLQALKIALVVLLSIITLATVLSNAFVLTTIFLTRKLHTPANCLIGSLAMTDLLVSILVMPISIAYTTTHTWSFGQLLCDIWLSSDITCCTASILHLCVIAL
Beta-arrestin-2, sequence (P32120 whole entry): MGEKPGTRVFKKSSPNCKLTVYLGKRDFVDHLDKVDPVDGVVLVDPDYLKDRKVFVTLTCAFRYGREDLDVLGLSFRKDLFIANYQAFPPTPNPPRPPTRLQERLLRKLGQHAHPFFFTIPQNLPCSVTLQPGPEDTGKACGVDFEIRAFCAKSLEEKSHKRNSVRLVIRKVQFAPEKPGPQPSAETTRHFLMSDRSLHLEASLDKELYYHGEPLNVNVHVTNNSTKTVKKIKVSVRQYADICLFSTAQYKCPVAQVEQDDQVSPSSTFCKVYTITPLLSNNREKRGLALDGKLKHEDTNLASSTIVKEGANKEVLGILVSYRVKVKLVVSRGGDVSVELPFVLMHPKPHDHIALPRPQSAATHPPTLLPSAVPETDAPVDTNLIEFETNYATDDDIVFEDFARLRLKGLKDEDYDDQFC
5-hydroxytryptamine receptor 1B, sequence (P28564 whole entry): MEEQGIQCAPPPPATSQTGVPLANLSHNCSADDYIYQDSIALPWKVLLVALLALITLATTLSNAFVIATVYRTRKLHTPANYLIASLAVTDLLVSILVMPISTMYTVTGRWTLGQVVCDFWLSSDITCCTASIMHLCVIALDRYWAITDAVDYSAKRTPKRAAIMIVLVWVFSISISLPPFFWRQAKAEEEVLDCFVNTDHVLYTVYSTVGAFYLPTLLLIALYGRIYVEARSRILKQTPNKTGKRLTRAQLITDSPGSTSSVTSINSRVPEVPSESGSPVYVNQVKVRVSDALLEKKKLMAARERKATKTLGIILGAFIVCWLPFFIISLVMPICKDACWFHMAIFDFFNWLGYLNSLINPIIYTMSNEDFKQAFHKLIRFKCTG
5-hydroxytryptamine receptor 2A, sequence (P14842 whole entry): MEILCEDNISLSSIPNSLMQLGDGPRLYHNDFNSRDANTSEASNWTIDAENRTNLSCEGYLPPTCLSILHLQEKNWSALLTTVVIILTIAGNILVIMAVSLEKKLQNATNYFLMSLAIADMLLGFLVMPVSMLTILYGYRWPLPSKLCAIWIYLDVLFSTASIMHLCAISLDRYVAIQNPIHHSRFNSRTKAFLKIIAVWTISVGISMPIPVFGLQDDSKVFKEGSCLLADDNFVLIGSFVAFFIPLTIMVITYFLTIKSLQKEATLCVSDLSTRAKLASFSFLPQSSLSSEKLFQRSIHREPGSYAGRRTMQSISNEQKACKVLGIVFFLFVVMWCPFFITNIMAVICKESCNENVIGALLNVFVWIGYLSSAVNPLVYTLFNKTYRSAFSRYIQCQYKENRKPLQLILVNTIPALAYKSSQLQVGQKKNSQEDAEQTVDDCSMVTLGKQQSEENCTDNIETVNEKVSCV

Ki [1]	Ki [2]	Ki [4]	Ki [5]	SMILES	Ki [3]	Ki (Beta-arrestin-2)
0.794 µM	9.12 µM	4.47 µM	3.24 µM	c1ccc2c(CCC3CCNCC3)c[nH]c2c1	3.63 µM	3.24 µM
–	–	–	–	CNCC[C@@H](Oc1ccc(C(F)(F)F)cc1)c1ccccc1 [(3R)-N-methyl-3-phenyl-3-[4-(trifluoromethyl)phenoxy]propan-1-amine]	3.89 µM	3.63 µM
0.407 µM	3.16 µM	9.33 µM	> 10 µM	COc1ccc(OC[C@H]2CN(C)CC[C@@H]2c2ccccc2)cc1 [(3R,4S)-3-(4-Methoxy-phenoxymethyl)-1-methyl-4-phenyl-piperidine]	3.72 µM	1.91 µM
–	–	> 10 µM	> 10 µM	CN(C)CCCC1(c2ccc(F)cc2)OCc2cc(C#N)ccc21 (configuration not stated) [CITALOPRAM HYDROBROMIDE]	> 10 µM	3.31 µM
–	–	–	–	CNCC[C@@H](Oc1ccc(C(F)(F)F)cc1)c1ccccc1 [Fluoxetine-R-(-)]	> 10 µM	0.155 µM
–	–	–	–	CNCC[C@@H](Oc1ccc(C(F)(F)F)cc1)c1ccccc1 [Prozac]	4.27 µM	0.269 µM

SMILES	Ki [1]	Ki [2]	Ki [4]	Ki [5]	Ki [3]	Ki (Beta-arrestin-2)
Fc1ccc([C@@H]2CCNC[C@H]2COc2ccc3c(c2)OCO3)cc1 [PAROXETINE]	–	> 10 µM	> 10 µM	2.63 µM	4.9 µM	> 10 µM
